Measured values: US20140135319A1, “6-SUBSTITUTED IMIDAZOPYRAZINES FOR USE AS MPS-1 AND TKK INHIBITORS IN THE TREATMENT OF HYPERPROLIFERATIVE DISORDERS” (BAYER INTELLECTUAL PROPERTY GMBH, priority 2010, published 2014)
pIC50: −log10 of the molar value.

These compounds were tested against T1, human kinase Mps-1 (Homo sapiens, UniProt P33981) (assay: Mps-1 kinase assay (TR-FRET)). Details: GST-tagged human full length recombinant Mps-1; 10 μM ATP; 1 μM peptide substrate; 60 min at 22° C.
T1 construct: N-terminally GST-tagged human full length recombinant Mps-1 kinase; GST (N); purchased Invitrogen, Karslruhe, Germany PV4071
T1 sequence (P33981 1-857): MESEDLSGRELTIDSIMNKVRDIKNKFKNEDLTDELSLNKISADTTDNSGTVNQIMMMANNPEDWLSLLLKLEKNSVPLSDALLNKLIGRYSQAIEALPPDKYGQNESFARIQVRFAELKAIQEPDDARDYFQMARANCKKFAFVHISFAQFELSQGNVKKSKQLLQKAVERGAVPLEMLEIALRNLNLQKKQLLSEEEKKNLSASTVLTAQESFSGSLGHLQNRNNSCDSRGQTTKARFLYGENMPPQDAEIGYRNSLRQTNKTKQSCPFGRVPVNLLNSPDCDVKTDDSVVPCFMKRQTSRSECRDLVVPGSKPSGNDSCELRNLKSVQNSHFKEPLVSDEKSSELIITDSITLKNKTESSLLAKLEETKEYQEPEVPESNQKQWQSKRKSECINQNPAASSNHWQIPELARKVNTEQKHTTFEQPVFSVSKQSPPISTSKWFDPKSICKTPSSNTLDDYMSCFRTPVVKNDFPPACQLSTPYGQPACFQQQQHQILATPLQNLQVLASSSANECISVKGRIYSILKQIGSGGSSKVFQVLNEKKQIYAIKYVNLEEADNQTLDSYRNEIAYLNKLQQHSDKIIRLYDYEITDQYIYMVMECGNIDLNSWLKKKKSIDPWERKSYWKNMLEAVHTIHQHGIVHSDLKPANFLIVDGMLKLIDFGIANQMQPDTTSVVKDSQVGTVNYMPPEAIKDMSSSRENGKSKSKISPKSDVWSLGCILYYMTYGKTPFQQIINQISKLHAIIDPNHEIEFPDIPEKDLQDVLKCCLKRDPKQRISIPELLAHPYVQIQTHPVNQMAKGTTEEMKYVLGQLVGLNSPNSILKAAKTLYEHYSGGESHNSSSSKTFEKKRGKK
Assay type: biochemical
Experimental: The human kinase Mps-1 phosphorylates a biotinylated substrate peptide. Detection of the phosphorylated product is achieved by time-resolved fluorescence resonance energy transfer (TR-FRET) from Europium-labelled anti-phospho-Serine/Threonine antibody as donor to streptavidin labelled with cross-linked allophycocyanin (SA-XLent) as acceptor. Compounds are tested for their inhibition of the kinase activity.
N-terminally GST-tagged human full length recombinant Mps-1 kinase (purchased from Invitrogen, Karslruhe, Germany, cat. no PV4071) was used. As substrate for the kinase reaction a biotinylated peptide of the amino-acid sequence […] (C-terminus in amide form, purchased from Biosynthan GmbH, Berlin) was used.
The concentration of Mps-1 in the assay was adjusted to the activity of the enzyme lot and was chosen appropriate to have the assay in the linear range, typical enzyme concentrations were in the range of about 1 nM (final conc. in the 5 μl assay volume).
The resulting mixture was incubated 1 h at 22° C. to allow the binding of the phosphorylated peptide to the anti-phospho(Ser/Thr)-Europium-antibody. Subsequently the amount of phosphorylated substrate was evaluated by measurement of the resonance energy transfer from the Europium-labelled anti-phospho(Ser/Thr) antibody to the Streptavidin-XLent. Therefore, the fluorescence emissions at 620 nm and 665 nm after excitation at 350 nm was measured in a Viewlux TR-FRET reader (PerkinElmer LAS, Rodgau-Jügesheim, Germany). The “blank-corrected normalized ratio” (a Viewlux specific readout, similar to the traditional ratio of the emissions at 665 nm and at 622 nm, in which blank and Eu-donor crosstalk are subtracted from the 665 nm signal before the ratio is calculated) was taken as the measure for the amount of phosphorylated substrate.
Compound `CC(C)CNc1nc(-c2ccoc2)cn2c(-c3ccc(C(=O)NC4CC4)c(F)c3)cnc12` [Example 1-50, N-cyclopropyl-2-fluoro-4-{6-(furan-3-yl)-8-[(2-methylpropyl)amino]imidazo[1,2-a]pyrazin-3-yl}benzamide] has a pIC50 of 8.04. Work on `CC(C)CNc1nc(-c2ccn[nH]2)cn2c(-c3ccc(C(=O)NC4CC4)c(F)c3)cnc12` [Example 1-51, N-cyclopropyl-2-fluoro-4-{8-[(2-methylpropyl)amino]-6-(1H-pyrazol-5-yl)imidazo[1,2-a]pyrazin-3-yl}benzamide] yielded a pIC50 of 8.08. For `CC(C)CNc1nc(C2=CCOCC2)cn2c(-c3ccc(C(=O)NC4CC4)c(F)c3)cnc12` [Example 1-52, N-cyclopropyl-4-{6-(3,6-dihydro-2H-pyran-4-yl)-8-[(2-methylpropyl)amino]imidazo[1,2-a]pyrazin-3-yl}-2-fluoro-benzamide], the pIC50 was 8.09. In the case of `O=C(NC1CC1)c1ccc(-c2cnc3c(NCCC(F)(F)F)nc(-c4ccncc4)cn23)cc1F` [Example 1-53, N-cyclopropyl-2-fluoro-4-{6-(pyridin-4-yl)-8-[(3,3,3-trifluoropropyl)amino]imidazo[1,2-a]pyrazin-3-yl}benzamide], the pIC50 was 8.42. For `O=C(NC1CC1)c1ccc(-c2cnc3c(NCCC(F)(F)F)nc(-c4ccoc4)cn23)cc1F` [Example 1-54, N-cyclopropyl-2-fluoro-4-{6-(furan-3-yl)-8-[(3,3,3-trifluoropropyl)amino]imidazo[1,2-a]pyrazin-3-yl}benzamide], the pIC50 was 8.18. Work on `O=C(NC1CC1)c1ccc(-c2cnc3c(NCCC(F)(F)F)nc(-c4ccn[nH]4)cn23)cc1F` [Example 1-55, N-cyclopropyl-2-fluoro-4-{6-(1H-pyrazol-5-yl)-8-[(3,3,3-trifluoropropyl)amino]imidazo[1,2-a]pyrazin-3-yl}benzamide] yielded a pIC50 of 8.02. `O=C(NC1CC1)c1ccc(-c2cnc3c(NCCC(F)(F)F)nc(C4=CCOCC4)cn23)cc1F` [Example 1-56, N-cyclopropyl-4-{6-(3,6-dihydro-2H-pyran-4-yl)-8-[(3,3,3-trifluoro-propyl)amino]imidazo [1,2-a]pyrazin-3-yl}-2-fluorobenzamide] gave a pIC50 of 8.06. In the case of `CC(C)(O)CNc1nc(-c2ccncc2)cn2c(-c3ccc(C(=O)NC4CC4)c(F)c3)cnc12` [Example 1-57, N-cyclopropyl-2-fluoro-4-{8-[(2-hydroxy-2-methylpropyl)amino]-6-(pyridin-4-yl)imidazo [1,2-a]pyrazin-3-yl} benzamide], the pIC50 was 7.62. `CC(C)(O)CNc1nc(-c2ccoc2)cn2c(-c3ccc(C(=O)NC4CC4)c(F)c3)cnc12` [Example 1-58, N-cyclopropyl-2-fluoro-4-{6-(furan-3-yl)-8-[(2-hydroxy-2-methyl-propyl)amino]imidazo [1,2-a]pyrazin-3-yl} benzamide] gave a pIC50 of 7.64. `CC(C)(O)CNc1nc(-c2ccn[nH]2)cn2c(-c3ccc(C(=O)NC4CC4)c(F)c3)cnc12` [Example 1-59, N-cyclopropyl-2-fluoro-4-{8-[(2-hydroxy-2-methylpropyl)amino]-6-(1H-pyrazol-5-yl)imidazo [1,2-a]pyrazin-3-yl} benzamide] showed a pIC50 of 7.00. In the case of `CC(C)(O)CNc1nc(C2=CCOCC2)cn2c(-c3ccc(C(=O)NC4CC4)c(F)c3)cnc12` [Example 1-60, N-cyclopropyl-4-{6-(3,6-dihydro-2H-pyran-4-yl)-8-[(2-hydroxy-2-methylpropyl)amino]imidazo[1,2-a]pyrazin-3-yl}-2-fluorobenzamide], the pIC50 was 7.52. With `O=C(NC1CC1)c1ccc(-c2cnc3c(NCC4CCCO4)nc(-c4ccncc4)cn23)cc1F` (stereo not shown) [Example 1-61, N-cyclopropyl-2-fluoro-4-{6-(pyridin-4-yl)-8-[(tetrahydrofuran-2-ylmethyl)amino]imidazo [1,2-a]pyrazin-3-yl} benzamide] the pIC50 was 7.88. In the case of `O=C(NC1CC1)c1ccc(-c2cnc3c(NCC4CCCO4)nc(-c4ccoc4)cn23)cc1F` (stereo not shown) [Example 1-62, N-cyclopropyl-2-fluoro-4-{6-(furan-3-yl)-8-[(tetrahydrofuran-2-ylmethyl)amino]imidazo [1,2-a]pyrazin-3-yl} benzamide], the pIC50 was 7.74.
